The values that follow come from US12655120B2, “GPR52 modulator compounds” (NXERA PHARMA UK LIMITED, priority 2020, dated 2026).

In this assay the target is T1, human GPR52 (Homo sapiens, UniProt Q9Y2T5).
T1 construct: expressed in transfected cells; host or cells: HEKf suspension cells infected with BacMam virus
In words: GPR52 Agonist Functional cAMP Assay. To be noted: for EC50: HEKf cells infected with human GPR52 BacMam, HTRF cAMP, 30 min at 37° C., read-out: pEC50 average (converted); for Emax: normalised to DMSO (0%) and maximal compound 7m (J. Med. Chem., 2014, 57, 5226) response (100%). Type of assay: cell-based. As to the method: HEKf suspension cells were infected for 24 h with 0.1% v/v human GPR52 expressing BacMam virus, a modified baculovirus designed for mammalian gene expression. Following BacMam infection, cells were pelleted by centrifugation (335 g, 5 min), resuspended in cell freezing medium (Sigma) and frozen at −150° C. until required. On experiment day, 25 nL GPR52 compound dilutions, prepared in DMSO, were stamped onto proxiplates (PerkinElmer) by a LabCyte ECHO acoustic dispenser. Frozen cells were thawed and resuspended in assay stimulation buffer (Cisbio) containing 0.5 mM 3-iso-butyl-1-methylxanthine (IBMX, Sigma) to achieve a density of 2000 cells per well. 10 μl cells were added to assay plates using a Multidrop Combi Reagent Dispenser (ThermoFisher) before centrifugation (335 g, 1 min). Cells were incubated with compounds at 37° C. for 30 min prior to addition of cAMP detection reagents (HiRange cAMP kit, Cisbio) which were prepared according to the manufacturer's instructions. Plates were shaken for 1 h at room temperature before reading on a PHERAstar FS plate reader (BMG Labtech) using standard HTRF settings. HTRF ratios were obtained by dividing the acceptor emissions (665 nm) by the donor emissions (620 nm) and multiplying by 10,000.

T1 sequence (Q9Y2T5 whole entry): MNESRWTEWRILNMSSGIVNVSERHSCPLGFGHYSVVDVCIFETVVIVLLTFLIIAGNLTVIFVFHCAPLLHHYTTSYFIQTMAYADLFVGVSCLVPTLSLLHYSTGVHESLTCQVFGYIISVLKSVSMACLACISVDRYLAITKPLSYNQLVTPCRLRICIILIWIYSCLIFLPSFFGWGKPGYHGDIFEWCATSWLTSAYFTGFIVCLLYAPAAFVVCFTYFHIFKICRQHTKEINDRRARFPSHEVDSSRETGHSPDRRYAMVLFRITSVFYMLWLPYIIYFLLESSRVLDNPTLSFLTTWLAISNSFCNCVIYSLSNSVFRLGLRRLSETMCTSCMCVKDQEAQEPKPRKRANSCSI

`NC(=O)c1cc(CO)n(-c2cc(Cc3cc(F)cc(C(F)(F)F)c3)ccn2)n1` [Example 54, 1-(4-(3-fluoro-5-(trifluoromethyl)benzyl)pyridin-2-yl)-5-(hydroxymethyl)-1H-pyrazole-3-carboxamide]: the EC50 is 79.4 nM and the Emax came out at 92%. On the same counts, the results for `Cc1nn(-c2ccnc(Cc3cc(F)cc(C(F)(F)F)c3)c2)nc1C(N)=O` [Example 12, 2-(2-(3-fluoro-5-(trifluoromethyl)benzyl)pyridin-4-yl)-5-methyl-2H-1,2,3-triazole-4-carboxamide] are 50.1 nM and 95%. `NC(=O)c1ccn(-c2cc(Cc3cc(F)cc(C(F)(F)F)c3)ccn2)n1` [Example 9, 1-(4-(3-fluoro-5-(trifluoromethyl)benzyl)pyridin-2-yl)-1H-pyrazole-3-carboxamide]: the EC50 is 100 nM and the maximal effect (Emax) was found to be 85%.

For `COCCNC(=O)c1cn(-c2ccnc(Cc3cc(F)cc(C(F)(F)F)c3)c2)nc1C` [Example 21, 1-(2-(3-fluoro-5-(trifluoromethyl)benzyl)pyridin-4-yl)-N-(2-methoxyethyl)-3-methyl-1H-pyrazole-4-carboxamide], the EC50 was 39.8 nM and the Emax came to 96%. On the same counts, the results for `N#Cc1nn(-c2ccnc(Cc3cc(F)cc(C(F)(F)F)c3)c2)cc1C(N)=O` [Example 26, 3-cyano-1-(2-(3-fluoro-5-(trifluoromethyl)benzyl)pyridin-4-yl)-1H-pyrazole-4-carboxamide] are 100 nM and 87%. On to `NC(=O)c1nn(-c2cc(Cc3cc(F)cc(C(F)(F)F)c3)ccn2)cc1CO` [Example 49, 1-(4-(3-fluoro-5-(trifluoromethyl)benzyl)pyridin-2-yl)-4-(hydroxymethyl)-1H-pyrazole-3-carboxamide], for which the EC50 is 63.1 nM and the maximal effect (Emax) was determined as 93%. Consider `COc1nn(-c2ccnc(Cc3cc(F)cc(C(F)(F)F)c3)c2)cc1C(N)=O` [Example 11, 1-(2-(3-fluoro-5-(trifluoromethyl)benzyl)pyridin-4-yl)-3-methoxy-1H-pyrazole-4-carboxamide], for which the EC50 was 251 nM and the Emax was determined as 86%.

`COCCNC(=O)c1ccn(-c2cc(Cc3cc(F)cc(C(F)(F)F)c3)ccn2)n1` [Example 36, 1-(4-(3-fluoro-5-(trifluoromethyl)benzyl)pyridin-2-yl)-N-(2-methoxyethyl)-1H-pyrazole-3-carboxamide]: the EC50 was 126 nM and the Emax worked out at 87%.

For the compound `CCc1nn(-c2ccnc(Cc3cc(F)cc(C(F)(F)F)c3)c2)cc1C(N)=O` [Example 25, 3-ethyl-1-(2-(3-fluoro-5-(trifluoromethyl)benzyl)pyridin-4-yl)-1H-pyrazole-4-carboxamide], the EC50 was 10 nM and the Emax turned out to be 99%. Consider `NC(=O)c1cn(-c2ccnc(Cc3cc(F)cc(C(F)(F)F)c3)c2)nc1C1CC1` [Example 27, 3-cyclopropyl-1-(2-(3-fluoro-5-(trifluoromethyl)benzyl)pyridin-4-yl)-1H-pyrazole-4-carboxamide], for which the EC50 is 25.1 nM and the Emax is 97%. On the same counts, the results for `Cc1nn(-c2ccnc(Cc3cc(F)cc(C(F)(F)F)c3)c2)cc1C(=O)NCCO` [Example 20, 1-(2-(3-fluoro-5-(trifluoromethyl)benzyl)pyridin-4-yl)-N-(2-hydroxyethyl)-3-methyl-1H-pyrazole-4-carboxamide] are 15.8 nM and 96%. In the case of `CN(C)C(=O)c1ccn(-c2cc(Cc3cc(F)cc(C(F)(F)F)c3)ccn2)n1` [Example 32, 1-(4-(3-fluoro-5-(trifluoromethyl)benzyl)pyridin-2-yl)-N,N-dimethyl-1H-pyrazole-3-carboxamide], the EC50 was 200 nM and the Emax came to 75%. The like results for `Cc1nn(-c2ccnc(Cc3cc(F)cc(C(F)(F)F)c3)c2)cc1C(N)=O` [Example 8, 1-(2-(3-fluoro-5-(trifluoromethyl)benzyl)pyridin-4-yl)-3-methyl-1H-pyrazole-4-carboxamide] were, in that order, 20 nM and 96%.

On to `CNC(=O)c1cc(C)n(-c2cc(Cc3cc(F)cc(C(F)(F)F)c3)ccn2)n1` [Example 28, 1-(4-(3-fluoro-5-(trifluoromethyl)benzyl)pyridin-2-yl)-N,5-dimethyl-1H-pyrazole-3-carboxamide], for which the EC50 is 31.6 nM and the Emax was 95%.

For the compound `CNC(=O)c1cn(-c2ccnc(Cc3cc(F)cc(C(F)(F)F)c3)c2)nc1C` [Example 17, 1-(2-(3-fluoro-5-(trifluoromethyl)benzyl)pyridin-4-yl)-N,3-dimethyl-1H-pyrazole-4-carboxamide], the EC50 was 10 nM and the Emax was found to be 93%. For `Cc1nn(-c2cc(Cc3cc(F)cc(C(F)(F)F)c3)ccn2)nc1C(N)=O` [Example 13, 2-(4-(3-fluoro-5-(trifluoromethyl)benzyl)pyridin-2-yl)-5-methyl-2H-1,2,3-triazole-4-carboxamide], the EC50 was 39.8 nM and the Emax was 93%. For the compound `Cc1nn(-c2cc(Cc3cc(F)cc(C(F)F)c3)ccn2)c(CO)c1C(N)=O` [Example 44, 1-(4-(3-(difluoromethyl)-5-fluorobenzyl)pyridin-2-yl)-5-(hydroxymethyl)-3-methyl-1H-pyrazole-4-carboxamide], the Emax amounted to 101%. Regarding `NC(=O)c1cn(-c2cccc(Cc3cc(F)cc(C(F)(F)F)c3)n2)nc1CO` [Example 47, 1-(6-(3-fluoro-5-(trifluoromethyl)benzyl)pyridin-2-yl)-3-(hydroxymethyl)-1H-pyrazole-4-carboxamide], the EC50 was 501 nM and the Emax came out at 52%. `CNC(=O)c1ccn(-c2cc(Cc3cc(F)cc(C(F)F)c3)ccn2)n1` [Example 46, 1-(4-(3-(difluoromethyl)-5-fluorobenzyl)pyridin-2-yl)-N-methyl-1H-pyrazole-3-carboxamide]: the EC50 is 50.1 nM and the Emax turned out to be 88%. Compound `Cc1nn(-c2cc(Cc3cc(F)cc(C(F)(F)F)c3)ccn2)c(CO)c1C(=O)NCCO` [Example 40, 1-(4-(3-fluoro-5-(trifluoromethyl)benzyl)pyridin-2-yl)-N-(2-hydroxyethyl)-5-(hydroxymethyl)-3-methyl-1H-pyrazole-4-carboxamide] registered an Emax of 101%. Regarding `NC(=O)c1cnn(-c2cc(Cc3cc(F)cc(C(F)(F)F)c3)ccn2)n1` [Example 4, 2-(4-(3-fluoro-5-(trifluoromethyl)benzyl)pyridin-2-yl)-2H-1,2,3-triazole-4-carboxamide], the EC50 is 316 nM and the Emax came to 84%. Regarding `NC(=O)c1nn(-c2cccc(Cc3cc(F)cc(C(F)(F)F)c3)n2)cc1CO` [Example 51, 1-(6-(3-fluoro-5-(trifluoromethyl)benzyl)pyridin-2-yl)-4-(hydroxymethyl)-1H-pyrazole-3-carboxamide], the EC50 was 501 nM and the Emax was 83%. The like results for `NC(=O)c1cnn(-c2ccnc(Cc3cc(F)cc(C(F)(F)F)c3)c2)c1` [Example 2, 1-(2-(3-fluoro-5-(trifluoromethyl)benzyl)pyridin-4-yl)-1H-pyrazole-4-carboxamide] were, in that order, 501 nM and 90%. For the compound `CNC(=O)c1ccn(-c2ccnc(Cc3cc(F)cc(C(F)(F)F)c3)c2)n1` [Example 55, 1-(2-(3-fluoro-5-(trifluoromethyl)benzyl)pyridin-4-yl)-N-methyl-1H-pyrazole-3-carboxamide], the EC50 is 126 nM and the Emax is 83%.

As for `Cc1c(C(N)=O)c(CO)nn1-c1cc(Cc2cc(F)cc(C(F)(F)F)c2)ccn1` [Example 53, 1-(4-(3-fluoro-5-(trifluoromethyl)benzyl)pyridin-2-yl)-3-(hydroxymethyl)-5-methyl-1H-pyrazole-4-carboxamide], the EC50 was 79.4 nM and the Emax is 97%. Turning to `CNC(=O)c1nn(-c2cc(Cc3cc(F)cc(C(F)(F)F)c3)ccn2)cc1CO` [Example 50, 1-(4-(3-fluoro-5-(trifluoromethyl)benzyl)pyridin-2-yl)-4-(hydroxymethyl)-N-methyl-1H-pyrazole-3-carboxamide], the EC50 is 10 nM and the Emax was determined as 82%. Consider `Cc1cn(-c2cccc(Cc3cc(F)cc(C(F)(F)F)c3)n2)nc1C(N)=O` [Example 15, 1-(6-(3-fluoro-5-(trifluoromethyl)benzyl)pyridin-2-yl)-4-methyl-1H-pyrazole-3-carboxamide], for which the EC50 was 79.4 nM and the Emax stood at 92%.

With `CNC(=O)c1nn(-c2cc(Cc3cc(F)cc(C(F)(F)F)c3)ccn2)cc1C` [Example 57, 1-(4-(3-fluoro-5-(trifluoromethyl)benzyl)pyridin-2-yl)-N,4-dimethyl-1H-pyrazole-3-carboxamide], the EC50 is 3.16 nM and the Emax is 87%. The like results for `NC(=O)c1ccn(-c2ccnc(Cc3cc(F)cc(C(F)(F)F)c3)c2)n1` [Example 29, 1-(2-(3-fluoro-5-(trifluoromethyl)benzyl)pyridin-4-yl)-1H-pyrazole-3-carboxamide] were, in that order, 1260 nM and 86%.
